Data set [1] relates to HT-29. As to the kind of experiment: cells. Particulars: Homo sapiens, HT-29, 48 h; for activity at 10 µM: read-out: Cell growth (%) HT-29.
Data set [2] concerns MCF-7. Nature of the data set: cells. To be noted: Homo sapiens, MCF7, 48 h; for activity at 10 µM: read-out: Cell growth (%) MCF-7.
The subject of data set [3] is CCRF-CEM. Nature of the data set: cells. Particulars: Homo sapiens, 48 h; for activity at 10 µM: read-out: Cell growth (%) CCRF-CEM.
The test system of data set [4] is 184B5. Nature of the data set: MTT cytotoxicity in nonmalignant mammary gland derived cells. Format: cell-based. Here is the method: (§1) Cell lines were provided by the European Collection of Cell Cultures (ECACC) or by the American Type Culture Collection (ATCC). Seven cell lines were used: MCF-7 (breast adenocarnicoma), 184B5 (nonmalignant, mammary gland derived), CCRF-CEM (lymphoblastic leukemia), HT-29 (colon carcinoma), HTB-54 (lung carcinoma), BEAS-2B (nonmalignant, derived from the bronchial epithelium) and PC-3 (prostate carcinoma). MCF-7, CCRF-CEM, HT-29, HTB-54, BEAS-2B and PC-3 cell lines were grown in RPMI medium (Gibco) supplemented with 10% fetal bovine serum (FBS; Gibco), 100 units/mL penicillin and […] streptomycin (Gibco). 184B5 cells were grown in DMEM/F12 medium supplemented with 5% FBS, 1 × ITS (Lonza), 100 nM hydrocortisone (Aldich), 2 mM sodium pyruvate (Lonza), 20 ng/mL EGF (Sigma-Aldrich), 0.3 nM trans-retinoic acid (Sigma-Aldrich), 100 units/mL penicillin and […] streptomycin. Cells were maintained at 37 °C and 5% CO2.
(§2) The cytotoxic effect of each substance was tested by the MTT method. Each compound was initially dissolved in DMSO at a concentration of 0.01 M, and serial dilutions were prepared with nonsupplemented medium. The cytotoxic effect of each compound was tested at 50 and 10 µM as a first screening. […]
(§3) A total of 1 × 10^4 cells/well in 96-well plates were treated with increasing concentrations of the corresponding compounds for 48 h at 37 °C in a humidified atmosphere containing 5% CO2. Then, cells were incubated with 50 µL of MTT (2 mg/mL stock) for 4 h. The medium was then removed by aspiration, and the formazan crystals were dissolved in […] of DMSO. […] Data were obtained from at least 3 independent experiments performed in quadruplicate. The standard error of the means (SEM) for the cytotoxic parameters was calculated applying the standard deviation formula to the mean values of each parameter for the three independent experiments performed.
(§4) . Cisplatin was used as a standard drug. […]. […] The presence of electron-withdrawing groups (-NO2, -CF3, -Cl) in the phenyl ring favored the cytotoxic activity in the amides, but in the phosphoramidates, the best results were obtained for aliphatic chains methoxy (II.1b, II.2b) and ethoxy (II.1d, II.2d). […].
(§5) The lack of selectivity toward cancerous cells is one of the major issues during the discovery and development of new anticancer agents. Therefore, we evaluated the cytotoxic activity of our compounds against two cell lines derived from nonmalignant breast tissue (184B5) and no malignant bronchial epithelium (BEAS-2B) (Table 2). […].

Test in data set [5]: as above
The data set is classed as cell-based. To be noted: human; nonmalignant cells, 48 h; read-out: LC50 184B5. As to the method:
as §1, §2, §3, §4, §5

Data set [6] deals with HTB-54. As to the kind of experiment: cells. Format: cell-based. To be noted: Homo sapiens, HTB-54, 48 h, average ± SEM. Here is the method: as §1, §2, §3, §4
In data set [7] the test system is PC-3. Nature of the data set: cells. To be noted: Homo sapiens, PC-3, 48 h, average ± SEM. The data set is classed as cell-based. As to the method: as §1, §2, §3, §4
Data set [8] concerns BEAS-2B. As to the kind of experiment: MTT cytotoxicity in nonmalignant bronchial epithelium cells. To be noted: Homo sapiens, BEAS-2B, nonmalignant cells, 48 h. The data set is classed as cell-based. As to the method: as §1, §2, §3, §4, §5
Test in data set [9]: as above
The data set is classed as cell-based. To be noted: human; nonmalignant cells, 48 h; read-out: LC50 BEAS-2B. Here is the method: as §1, §2, §3, §4, §5

With `O=P(Nc1ccccc1)(Nc1ccc([Se][Se]c2ccc(NP(=O)(Nc3ccccc3)Oc3ccccc3)cc2)cc1)Oc1ccccc1` (stereo not shown) [II.1f], the activity at 10 µM in [1] was determined as 106%; in [2] it was 90%; in [3], 125%.

Regarding `O=C(Nc1ccc([Se][Se]c2ccc(NC(=O)c3cccc4ccccc34)cc2)cc1)c1cccc2ccccc12` [I.1m], the activity at 10 µM in data set [1] came to 78.8%; in data set [2], 75.5%; in [3] it was 74.4%.

Take `N#C[Se]c1ccc(NC(=O)c2ccco2)cc1` [I.2h]: the GI50 in [4] (Homo sapiens, 184B5, nonmalignant cells, 48 h, read-out: GI50 184B5) is 36.1 µM; in [6] (read-out: GI50 HTB54) it was over 100 µM; in [7] (read-out: GI50 PC-3), over 100 µM; in data set [1] (read-out: GI50 HT-29) it was 42.7 ± 1.2 µM; in [2] (read-out: GI50 MCF-7, 48 h, average ± SEM), 7.4 ± 1.9 µM; in data set [3] (read-out: GI50 CCRF-CEM), 21.8 ± 3.1 µM. Moreover, in [8] (read-out: GI50 BEAS-2B), the GI50 amounted to 8.47 µM. For the same compound, the IC (TGI) in data set [4] (Homo sapiens, 184B5, nonmalignant cells, 48 h, read-out: TGI 184B5) is over 100 µM; in data set [6] (read-out: TGI HTB54) it was over 100 µM; in [7] (read-out: TGI PC-3), over 100 µM; in [1] (read-out: TGI HT-29) it was over 100 µM; in data set [2] (read-out: TGI MCF-7), 50.4 ± 1.3 µM; in data set [3] (read-out: TGI CCRF-CEM), over 100 µM. Further, the IC (TGI) in data set [8] (read-out: TGI BEAS-2B) worked out at 67.3 µM. Also, the “Selectivity index (SI) = GI50 (184B5)/GI50 (MCF-7)” value in [4] (breast) worked out at 5.66. Besides, the LC50 (50% lethal concentration) in data set [5] and in data set [9] was over 100 µM throughout. In addition, the CC50 in data set [6] (read-out: LC50 HTB54) was over 100 µM; in data set [1] (read-out: LC50 HT-29), over 100 µM; in [2] (read-out: LC50 MCF-7), 94.9 ± 4.7 µM; in [3] (read-out: LC50 CCRF-CEM), over 100 µM. In addition, the LC50 in [7] (read-out: LC50 PC-3) was over 100 µM. Moreover, the activity at 10 µM in data set [1] is 46.7%; in data set [2] it was 41.6%; in data set [3], 47.1%.

Consider `O=C(Nc1ccc([Se][Se]c2ccc(NC(=O)C34CC5CC(CC(C5)C3)C4)cc2)cc1)C12CC3CC(CC(C3)C1)C2` [I.1k], for which the results for the activity at 10 µM in [1], in [2] and in [3] were 97.1%, 88% and 90.2%, respectively.

Consider `O=P(Nc1ccc([Se][Se]c2ccc(NP(=O)(Oc3ccccc3)Oc3ccccc3)cc2)cc1)(Oc1ccccc1)Oc1ccccc1` [II.1c], for which the activity at 10 µM in [1] is 109%; in data set [2] it was 94%; in data set [3] it was 85.2%.

On to `N#C[Se]c1ccc(NC(=O)c2ccc(C#N)cc2)cc1` [I.2d], for which the activity at 10 µM in data set [1] was 105%; in [2], 74.3%; in data set [3] it was 115%.

For the compound `N#C[Se]c1ccc(NC(=O)c2ccccc2)cc1` [I.2a], the activity at 10 µM amounted to 71.6% in data set [1], 63.7% in data set [2] and 103% in data set [3].

Consider `N#C[Se]c1ccc(NP(=O)(Nc2ccccc2)Oc2ccccc2)cc1` (stereo not shown) [II.2f], for which the activity at 10 µM was determined as 64.6% in [1], 61.4% in data set [2] and 22.3% in [3].

Regarding `O=C(Nc1ccc([Se][Se]c2ccc(NC(=O)c3cccs3)cc2)cc1)c1cccs1` [I.1i], the activity at 10 µM in data set [1] amounted to 98.2%; in data set [2], 104%; in data set [3], 100%.

Take `COc1ccc(C(=O)Nc2ccc([Se]C#N)cc2)cc1` [I.2c]: the activity at 10 µM was 93.3% in data set [1], 97.8% in data set [2] and 76.5% in [3].

Turning to `O=C(Nc1ccc([Se][Se]c2ccc(NC(=O)c3ccno3)cc2)cc1)c1ccno1` [I.1j], the activity at 10 µM in data set [1] was found to be 98.9%; in data set [2], 92.2%; in data set [3], 112%.

With `Cc1ccc(C(=O)Nc2ccc([Se]C#N)cc2)cc1` [I.2g], the activity at 10 µM amounted to 94.1% in data set [1], 70.4% in data set [2] and 94.3% in data set [3].

In the case of `COc1ccc(C(=O)Nc2ccc([Se][Se]c3ccc(NC(=O)c4ccc(OC)cc4)cc3)cc2)cc1` [I.1c], the figures for the activity at 10 µM in data set [1], in [2] and in data set [3] were 81.4%, 79% and 57.5%, respectively.

`N#C[Se]c1ccc(NC(=O)/C=C/c2ccccc2)cc1` [I.2l]: the activity at 10 µM in [1] worked out at 76%; in data set [2], 65%; in data set [3], 62%.

Turning to `O=C(/C=C/c1ccccc1)Nc1ccc([Se][Se]c2ccc(NC(=O)/C=C/c3ccccc3)cc2)cc1` [I.1l], the results for the activity at 10 µM in data set [1], in [2] and in [3] were 93%, 76.7% and 50%, respectively.

As to `N#C[Se]c1ccc(NC(=O)c2cccc3ccccc23)cc1` [I.2m], the activity at 10 µM in data set [1] amounted to 101%; in data set [2], 101%; in data set [3], 70.9%.

With `O=C(Nc1ccc([Se][Se]c2ccc(NC(=O)c3ccccc3)cc2)cc1)c1ccccc1` [I.1a], the activity at 10 µM in data set [1] was 82.6%; in data set [2], 79.7%; in data set [3], 103%.

`N#C[Se]c1ccc(NC(=O)C23CC4CC(CC(C4)C2)C3)cc1` [I.2k]: the activity at 10 µM in [1] was 99.7%; in data set [2], 113%; in data set [3], 107%.

On to `Cc1ccc(OP(=O)(Nc2ccc([Se][Se]c3ccc(NP(=O)(Oc4ccc(C)cc4)Oc4ccc(C)cc4)cc3)cc2)Oc2ccc(C)cc2)cc1` [II.1g], for which the activity at 10 µM in data set [1] is 104%; in [2] it was 82.6%; in [3] it was 111%.

In the case of `CSc1ccc(C(=O)Nc2ccc([Se]C#N)cc2)cc1` [I.2n], the activity at 10 µM was 101% in [1], 69.5% in data set [2] and 100% in data set [3].

For the compound `N#C[Se]c1ccc(NP(=O)(Oc2ccccc2)Oc2ccccc2)cc1` [II.2c], the activity at 10 µM in data set [1] is 116%; in data set [2] it was 114%; in [3] it was 81.9%.

As to `Cc1ccc(OP(=O)(Nc2ccc([Se]C#N)cc2)Oc2ccc(C)cc2)cc1` [II.2g], the activity at 10 µM in data set [1] was found to be 99.1%; in data set [2] it was 75.6%; in [3], 108%.

As for `N#Cc1ccc(C(=O)Nc2ccc([Se][Se]c3ccc(NC(=O)c4ccc(C#N)cc4)cc3)cc2)cc1` [I.1d], the activity at 10 µM in data set [1] came out at 109%; in data set [2], 79.1%; in data set [3], 101%.
